Four compounds from PMC8001783, “New Lignanamides with Antioxidant and Anti-Inflammatory Activities Screened Out and Identified from Warburgia ugandensis Combining Affinity Ultrafiltration LC-MS with SOD and XOD Enzymes” (Antioxidants, 2021) can be followed below.

Several values for one entry are separate records, joined by “and”; a condition that tells them apart may be missing. Identical values can stand only once. Marks after values point to notes of the source that are not given here.

A short description of assay [1]: DPPH free radical scavenging assay. The note with it: 30 min, 517 nm, n = 3; for IC50: pure compounds. The protocol:
The DPPH free radical scavenging activities of extracts and pure compounds from stem barks of W. ugandensis were tested according to previous studies with slight modifications. Firstly, 10 µL solutions of the samples, appropriately diluted with MeOH, were homogeneously mixed with 190 µL solution of DPPH (0.1 mM in MeOH) in a 96-well plate. Secondly, the mixtures were gently shaken and put at room temperature for 30 min in the darkness. Finally, the absorbance was recorded at 517 nm with multifunctional microplate reader. Trolox was used as positive control, and MeOH was used as blank control. Each of the samples and controls were tested in triplicate (n = 3). The antioxidant activities of DPPH were expressed as IC50 (concentration of samples caused 50% inhibition) and TEAC values. The TEAC values were calculated from the standard curve of Trolox and expressed as millimoles of Trolox equivalents per gram of sample (mmol TE/g). The inhibition of the DPPH radical was calculated according to the following formula:DPPH scavenging activity (%) = (1 − absorbance of sample/absorbance of blank control) × 100,(1) where DPPH scavenging activities (%) were plotted against the concentration of samples to obtain the IC50.
Background: The DPPH test is a chemical assay of radical scavenging.

Assay [2] is described as follows: ABTS free radical scavenging assay. The note with it: 30 min, 734 nm, n = 3; for IC50: pure compounds. The protocol: The ABTS free radical scavenging activities of extracts and pure compounds from stem barks of W. ugandensis were tested according to previous studies with slight modifications. ABTS^+ solution was prepared by mixing equal volumes of potassium persulfate (4.9 mM in H2O) and ABTS (7.0 mM in H2O) and then incubated for 12 h in the darkness. The prepared ABTS^+ solution was diluted with MeOH to ensure an absorbance value about 0.700 ± 0.005 at 734 nm. Firstly, 10 µL of appropriately diluted solution of samples was added to the 190 µL ABTS^+ solution in 96-well plate. Secondly, the mixtures were gently shaken and put at room temperature for 30 min in the darkness. Finally, the absorbance was recorded at 734 nm with multifunctional microplate reader. Trolox was used as positive control, and MeOH was used as blank control. Samples and controls were tested in triplicate (n = 3). The antioxidant activities of ABTS were expressed as IC50 and TEAC values. The inhibition of the ABTS radicals was calculated according to the following formula:ABTS scavenging activity (%) = (1 − absorbance of sample/absorbance of blank control) × 100,(2) where ABTS scavenging activities (%) were plotted against the concentration of samples to acquire the IC50.

Assay [3] can be described thus: Ferric reducing antioxidant power (FRAP) assay. The note with it: 37 °C, 10 min, 593 nm, n = 3. The procedure: The ferric reducing antioxidant power assays on different extracts and pure compounds of stem barks from W. ugandensis were tested according to previous studies with slight modifications. Firstly, freshly prepared FRAP reagent (Fe^3+-TPTZ solution) was composed of FeCl3∙6H2O (20 mM in H2O), TPTZ (10 mM in 40 mM HCl), and acetate buffer (300 mM, pH = 3.6) at a ratio of 1:1:10 (v/v/v), then incubated at 37 °C after preparation, and used within 1–2 h. Secondly, 10 µL of appropriately diluted solution of samples was added to the 190 µL freshly prepared FRAP reagent in 96-well plate. Thirdly, the mixtures were gently shaken and put at 37 °C for 10 min. Finally, the absorbance was recorded at 593 nm with multifunctional microplate reader. Trolox was used as a positive control, and MeOH was used as blank control. Each of the samples and controls were tested in triplicate (n = 3). The antioxidant activities of FRAP were expressed as FRAP values and TEAC values. The FRAP values were calculated and expressed as millimoles of Fe^2+ equivalents per gram of sample (mmol Fe^2+/g) based on a calibration curve plotted using FeSO4∙7H2O as standard at a concentration ranging from 0.0185 to 1.5 mM.

For the next assay, the system named is xanthine oxidase (XOD). The assay can be described thus: Affinity ultrafiltration LC-MS/MS with XOD (relative binding affinity). The following applies: peaks of WUE-A4, XOD 2 U, 37 °C 1 h, n = 3. The protocol: (§1) The experimental conditions were proposed according to previous relevant studies. Briefly, the optimized experiment was composed of three steps. Incubation was the first step, where 100 μL WUE-A4 (10.0 mg/mL), 10 µL SOD (2 U) or XOD (2 U), and 90 µL Tris-HCl (pH = 7.8) were mixed well in 1.5 mL EP tubes, and then incubated at 37 °C in the dark for 1 h. Meanwhile, the incubation operations of inactivated enzymes (inactivated enzymes were obtained by heating enzymes in a 99 °C water bath for 10 min) were the same as the active enzymes. Adsorption was the second step, where the incubated solutions were transferred to ultrafiltration tubes with 30 KDa (for SOD) or 10 KDa (for XOD) ultrafiltration membranes and then centrifuged at 10,000 rpm for 10 min at 25 °C. Simultaneously, components which had no binding affinity to enzymes were washed out. Immediately, 300 µL of Tris-HCl solution (pH = 7.8) was added to the ultrafiltration tubes and centrifuged at 10,000 rpm for 5 min at 25 °C to remove the potential unbound components. Desorption was the third step, where 300 µL of 90% (v/v) MeOH-H2O was added and incubated for 10 min at room temperature, and the mixed solutions were centrifuged at 10,000 rpm for another 10 min at 25 °C. After that, the desorption process was repeated two times to release those components with specific bindings to SOD or XOD from the enzyme-ligand complexes. Finally, those ultrafiltrates were dried and reconstituted in 50 µL MeOH for the HPLC-UV/ESI-MS/MS analysis.
(§2) HPLC-UV/ESI-MS/MS was carried out to characterize the components in WUE-A4 before and after ultrafiltration by using a Thermo Accela 600 series HPLC connected with a TSQ Quantum Access MAX mass spectrometer (Thermo Fisher Scientific, San Jose, CA, USA). A Waters Symmetry RP-C18 column (4.6 × 250 mm, 5 µm) was used to perform chromatographic analysis at 30 °C, and the mobile phase consisted of H2O with 0.1% formic acid (A) and ACN (B). The optimized HPLC elution procedures were as follows: 0–15 min, 17% B; 15–40 min, 17–30% B, 40–42 min: 30–56% B. The flow rate was 0.8 mL/min, the injection volume was 10 µL, and the HPLC-UV chromatograms were detected at a wavelength of 254 nm. The negative ion modes were applied to obtained ESI-MS/MS data. Moreover, the parameters of instrument were set as follows: the vaporizer temperature was 350 °C, the capillary temperature was 250 °C, the spray voltage was 3000 V, the cone voltage energy was 40 V, the collision energy was 10 V, the sheath gas pressure was 40 psi, the aux gas pressure was 10 psi, the drying gas flow rate was 6.0 L/min, and the mass range was set from 50 to 1100 (m/z) in the full-scan mode. Finally, the Thermo Xcalibur ChemStation (Thermo Fisher Scientific) was used for data acquisition and analysis.
(§3) For further evaluation of the affinity binding strength between the potential ligands and the target enzymes, the relative binding affinity (RBA) was employed to compare the variation of the correlated peak areas in the UF-HPLC-UV chromatograms before and after activation. The RBA formula is expressed as RBA = Aactive/Ainactivated, where the Aactive and Ainactivated represent the peak areas obtained from the WUE-A4 samples with activated and inactivated SOD or XOD, respectively.

Assay [4] relates to superoxide dismutase (SOD). The assay can be described thus: Affinity ultrafiltration LC-MS/MS with SOD (relative binding affinity). The note with it: peaks of WUE-A4, SOD 2 U, 37 °C 1 h, n = 3. Also noted: key: -: No binding affinity. The protocol:
as §1, §2, §3

What is called IC50 is the point on the concentration scale where inhibition reaches its midpoint. With “1-(3,4-dihydroxy-5-methoxyphenyl)-1,2-dihydroxy-7,8-dihydroxy-N-[(4-hydroxyphenyl)-ethyl]-N′-[(4-hydroxyphenyl) -ethyl]-6-methoxynaphthalene-2,3-dicarboxamide [compound 12]”, the results for the IC50 in assay [1] and in assay [2] were 142 ± 36.1 µM and 1150 ± 630 µM, respectively. In assay [3], the FRAP value is listed as 1.1 ± 0.2 ^c mmol Fe^2+/g. Moreover, the “UF-RBA XOD (relative binding affinity = Aactive/Ainactivated)” value is given as 1.7 ± 0.5 ^b,c in the assay on xanthine oxidase (XOD) and 1.70 in the assay with xanthine oxidase (XOD) (listed as peak 12). For the same compound, the “UF-RBA SOD (relative binding affinity = Aactive/Ainactivated)” value in assay [4] is “-”.

`Cc1c(C)c2c(c(C)c1O)CCC(C)(C(=O)O)O2` (stereo not shown) [Trolox, 6-Hydroxy-2,5,7,8-tetramethylchroman-2-carboxylic acid, reference compound]: the “DPPH IC50” value in assay [1] (extracts/fractions) is given as 9.0 ± 0.3 ^f µg/mL. The values for the IC50 in assay [1] and in assay [2] were 36 µM and 22.4 µM, respectively. Also, the “ABTS IC50” value in assay [2] (extracts/fractions) is on record as 5.9 ± 0.1 ^e µg/mL. Besides, the FRAP value in assay [3] is 16.212 ± 1.271 mmol Fe^2+/g and 16.2 ± 1.3 ^a mmol Fe^2+/g.

As to `C[C@@H]1O[C@@H](O[C@@H]2[C@@H](O)[C@H](O)[C@@H](CO)O[C@H]2c2cc(-c3cc(=O)c4c(O)cc(O)cc4o3)ccc2O)[C@H](O)[C@H](O)[C@H]1O` [compound 3, 2-[3-[2-O-(6-deoxy-α-L-mannopyranosyl)-β-D-glucopyranosyl]-4-hydroxyphenyl]-5,7-dihydroxy-4H-1-benzopyran-4-one], the “UF-RBA XOD (relative binding affinity = Aactive/Ainactivated)” value with xanthine oxidase (XOD) is reported as 1.0 ± 0.2 ^d. The figures for the “UF-RBA SOD (relative binding affinity = Aactive/Ainactivated)” value in assay [4] and in assay [4] (listed as peak 3) were 2.0 ± 0.1 ^a,b and 1.99, respectively.

Regarding `O=C1OCC2OC(Oc3ccc(cc3)C(=O)OCC3OC(Oc4ccc1cc4)C(O)C(O)C3O)C(O)C(O)C2O` [compound 5, 4-[(6′-O-β-D-allopyranosyl)-oxy]-hydroxy-benzoic acid cyclic dimeric inner ester], the “UF-RBA XOD (relative binding affinity = Aactive/Ainactivated)” value in the assay on xanthine oxidase (XOD) is 1.2 ± 0.1 ^c,d. Besides, in assay [4], the “UF-RBA SOD (relative binding affinity = Aactive/Ainactivated)” value is on record as 1.1 ± 0.1 ^e.
